Test results: ChEMBL document CHEMBL1201862, “PubChem BioAssay data set” (2004)
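Growth conditions: 96-well plates. Treatment: test compound, 48 hours, 5 concentrations. Analysis: linear interpolation between bracketing concentrations; unreached endpoints set to highest concentration. At the GI50, growth is halved.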 Activity calls are given as the source filed them. No stated cut-off is given here; in the data, active = GI50 up to about 1.1 µM and inactive = higher.

Experiments:
Test in all cases: DTP human tumour cell line panel, 48 h
786-0 = test system: 786-0
A498 = test system: A498
A549 = test system: A549
ACHN = test system: ACHN
CAKI-1 = test system: CAKI-1
CCRF-CEM = test system: CCRF-CEM
COLO 205 = test system: COLO 205
DLD-1 = test system: DLD-1
DMS-114 = test system: DMS-114
DMS-273 = test system: DMS-273
EKVX = test system: EKVX
HCC 2998 = test system: HCC 2998
HCT-116 = test system: HCT-116
HCT-15 = test system: HCT-15
HL-60 = test system: HL-60
HOP-18 = test system: HOP-18
HOP-62 = test system: HOP-62
HOP-92 = test system: HOP-92
HT-29 = test system: HT-29
IGROV-1 = test system: IGROV-1
K562 = test system: K562
KM-20L2 = test system: KM-20L2
KM12 = test system: KM12
LOX IMVI = test system: LOX IMVI
LXFL 529 = test system: LXFL 529
M14 = test system: M14
M19-MEL = test system: M19-MEL
MOLT-4 = test system: MOLT-4
Malme-3M = test system: Malme-3M
NCI-H226 = test system: NCI-H226
NCI-H23 = test system: NCI-H23
NCI-H460 = test system: NCI-H460
NCI-H522 = test system: NCI-H522
OVCAR-3 = test system: OVCAR-3
OVCAR-4 = test system: OVCAR-4
OVCAR-5 = test system: OVCAR-5
OVCAR-8 = test system: OVCAR-8
RPMI-8226 = test system: RPMI-8226
RXF 393 = test system: RXF 393
SF-268 = test system: SF-268
SF-295 = test system: SF-295
SF-539 = test system: SF-539
SK-MEL-28 = test system: SK-MEL-28
SK-MEL-2 = test system: SK-MEL-2
SK-MEL-5 = test system: SK-MEL-5
SK-OV-3 = test system: SK-OV-3
SN12C = test system: SN12C
SNB-19 = test system: SNB-19
SNB-75 = test system: SNB-75
SNB-78 = test system: SNB-78
SR = test system: SR
SW-620 = test system: SW-620
TK-10 = test system: TK-10
U-251 = test system: U-251
UACC-257 = test system: UACC-257
UACC-62 = test system: UACC-62
UO-31 = test system: UO-31
XF498 = test system: XF498
RXF 631 = test system: RXF 631

CCCCCCCCCCCC1CC(=O)NCCCN(C)CCCCN(C)CCCN1C (stereo unspecified) [BUDMUNCHIAMINE A]
GI50 (786-0): 1550 nM (inactive) | GI50 (A498): 1670 nM (inactive) | GI50 (A549): 1760 nM (inactive) | GI50 (ACHN): 1690 nM (inactive) | GI50 (CAKI-1): 2080 nM (inactive) | GI50 (CCRF-CEM): 156 nM (active) | GI50 (COLO 205): 1530 nM (inactive) | GI50 (DLD-1): 1600 nM (inactive) | GI50 (DMS-114): 1780 nM (inactive) | GI50 (DMS-273): 1240 nM (inactive) | GI50 (EKVX): 1780 nM (inactive) | GI50 (HCC 2998): 1740 nM (inactive) | GI50 (HCT-116): 1550 nM (inactive) | GI50 (HCT-15): 1630 nM | GI50 (HL-60): 395 nM (active) | GI50 (HOP-18): 1770 nM (inactive) | GI50 (HOP-62): 1660 nM (inactive) | GI50 (HOP-92): 1390 nM (inactive) | GI50 (HT-29): 1560 nM (inactive) | GI50 (IGROV-1): 1820 nM (inactive) | GI50 (K562): 261 nM (active) | GI50 (KM-20L2): 1650 nM (inactive) | GI50 (KM12): 1580 nM (inactive) | GI50 (LOX IMVI): 1480 nM (inactive) | GI50 (LXFL 529): 1720 nM (inactive) | GI50 (M14): 1800 nM (inactive) | GI50 (M19-MEL): 1760 nM (inactive) | GI50 (MOLT-4): 1950 nM (inactive) | GI50 (Malme-3M): 1900 nM (inactive) | GI50 (NCI-H226): 1930 nM (inactive) | GI50 (NCI-H23): 1730 nM (inactive) | GI50 (NCI-H460): 1360 nM (inactive) | GI50 (NCI-H522): 1810 nM (inactive) | GI50 (OVCAR-3): 1690 nM (inactive) | GI50 (OVCAR-4): 1740 nM (inactive) | GI50 (OVCAR-5): 1850 nM (inactive) | GI50 (OVCAR-8): 1890 nM (inactive) | GI50 (RPMI-8226): 828 nM (active) | GI50 (RXF 393): 1600 nM (inactive) | GI50 (SF-268): 1850 nM (inactive) | GI50 (SF-295): 1640 nM (inactive) | GI50 (SF-539): 1750 nM (inactive) | GI50 (SK-MEL-28): 1690 nM (inactive) | GI50 (SK-MEL-2): 1750 nM (inactive) | GI50 (SK-MEL-5): 1970 nM (inactive) | GI50 (SK-OV-3): 1800 nM (inactive) | GI50 (SN12C): 1740 nM (inactive) | GI50 (SNB-19): 1700 nM (inactive) | GI50 (SNB-75): 1590 nM (inactive) | GI50 (SNB-78): 1790 nM (inactive) | GI50 (SR): 230 nM (active) | GI50 (SW-620): 1060 nM (active) | GI50 (TK-10): 1730 nM (inactive) | GI50 (U-251): 1660 nM (inactive) | GI50 (UACC-257): 1680 nM (inactive) | GI50 (UACC-62): 1680 nM (inactive) | GI50 (UO-31): 1720 nM (inactive) | GI50 (XF498): 1650 nM (inactive)

Cc1cccc(NC(=O)Cc2nc3ccccc3s2)c1C
GI50 (786-0): > 100000 nM (inactive) | GI50 (A498): 83800 nM (inactive) | GI50 (A549): > 100000 nM (inactive) | GI50 (ACHN): > 100000 nM (inactive) | GI50 (CAKI-1): > 100000 nM (inactive) | GI50 (CCRF-CEM): > 100000 nM (inactive) | GI50 (COLO 205): > 100000 nM (inactive) | GI50 (DLD-1): > 100000 nM (inactive) | GI50 (DMS-114): > 100000 nM (inactive) | GI50 (DMS-273): > 100000 nM (inactive) | GI50 (EKVX): > 100000 nM (inactive) | GI50 (HCC 2998): > 100000 nM (inactive) | GI50 (HCT-15): > 100000 nM | GI50 (HL-60): > 100000 nM (inactive) | GI50 (HOP-62): > 100000 nM (inactive) | GI50 (HT-29): > 100000 nM (inactive) | GI50 (IGROV-1): > 100000 nM (inactive) | GI50 (K562): > 100000 nM (inactive) | GI50 (KM-20L2): > 100000 nM (inactive) | GI50 (KM12): > 100000 nM (inactive) | GI50 (LOX IMVI): > 100000 nM (inactive) | GI50 (LXFL 529): > 100000 nM (inactive) | GI50 (M14): > 100000 nM (inactive) | GI50 (M19-MEL): > 100000 nM (inactive) | GI50 (MOLT-4): > 100000 nM (inactive) | GI50 (Malme-3M): > 100000 nM (inactive) | GI50 (NCI-H226): > 100000 nM (inactive) | GI50 (NCI-H23): > 100000 nM (inactive) | GI50 (NCI-H460): > 100000 nM (inactive) | GI50 (NCI-H522): > 100000 nM (inactive) | GI50 (OVCAR-3): > 100000 nM (inactive) | GI50 (OVCAR-4): > 100000 nM (inactive) | GI50 (OVCAR-5): > 100000 nM (inactive) | GI50 (OVCAR-8): > 100000 nM (inactive) | GI50 (RPMI-8226): > 100000 nM (inactive) | GI50 (RXF 393): > 100000 nM (inactive) | GI50 (RXF 631): > 100000 nM (inactive) | GI50 (SF-268): > 100000 nM (inactive) | GI50 (SF-295): > 100000 nM (inactive) | GI50 (SF-539): > 100000 nM (inactive) | GI50 (SK-MEL-28): > 100000 nM (inactive) | GI50 (SK-MEL-2): > 100000 nM (inactive) | GI50 (SK-MEL-5): > 100000 nM (inactive) | GI50 (SK-OV-3): > 100000 nM (inactive) | GI50 (SN12C): > 100000 nM (inactive) | GI50 (SNB-19): > 100000 nM (inactive) | GI50 (SNB-75): > 100000 nM (inactive) | GI50 (SW-620): > 100000 nM (inactive) | GI50 (TK-10): > 100000 nM (inactive) | GI50 (UACC-257): > 100000 nM (inactive) | GI50 (UACC-62): > 100000 nM (inactive) | GI50 (UO-31): > 100000 nM (inactive) | GI50 (XF498): > 100000 nM (inactive)
